According to the NIST ThermoML archive (doi:10.1016/j.fluid.2006.09.021):
Numbers after ± are expanded uncertainties.

Conditions: Liquid, Closed cell (Static) method

S [hydrogen sulfide]
Conditions | vapor or sublimation pressure [kPa]
223.19 K | 167.4 ± 1.3
228.2 K | 209.1 ± 1.3
233.11 K | 257.4 ± 1.3
238.04 K | 313.9 ± 1.3
243.04 K | 380.1 ± 1.4
248.01 K | 456.7 ± 1.5
252.97 K | 544.2 ± 1.5
258.01 K | 644.5 ± 1.6
263 K | 757.7 ± 1.8
268.02 K | 885.7 ± 1.9
273.17 K | 1032.3 ± 2.1
278.24 K | 1194.1 ± 2.3
283.26 K | 1371.1 ± 2.5
288.31 K | 1566.6 ± 2.8
293.1 K | 1767.9 ± 3.3
293.3 K | 1779.5 ± 3.3
298.41 K | 2022.2 ± 3.5
303.08 K | 2259.6 ± 3.9
313.11 K | 2847.2 ± 4.8
323.18 K | 3540.4 ± 5.9
333.17 K | 4339.5 ± 7.2
343.16 K | 5261.2 ± 8.7
353.17 K | 6319.2 ± 10
363.16 K | 7533 ± 12
373.15 K | 8932.1 ± 14
